Measurements as given in patent publication US20220213030A1, “AMINOGUANIDINE HYDRAZONES AS RETROMER STABILIZERS USEFUL FOR TREATING NEUROLOGICAL DISEASES” (OSPEDALE SAN RAFFAELE SRL, priority 2019, published 2022).

Test system: Neuro2a cells transfected with G93A plasmids
Experiment: LDH-Glo cytotoxicity assay in G93A-transfected Neuro2a
Assay type: cell-based, mouse
Settings: 10 μM
Description: We next assayed cytotoxicity by measuring lactate dehydrogenase (LDH) release with a LDH-Glo™ cytotoxicity assay. Cells were treated with plasmids encoding G93A and the Sh56-RNAi sequence with or without compound 2a, while supernatants were used to measure LDH contents. Overexpression of G93A increased the release of LDH by Neuro2a cells, when compared with cells transfected with LacZ-encoding plasmids or with LacZ+Sh56 plasmids (FIG. 3E). […] On the other hand, LDH release increased when cells received G93A plasmids along with Sh56 plasmids.
LDH cytotoxicity was run on 96 well plates using LDH-Glo™ Cytotoxicity Assay (Promega). Briefly, Neuro2a cells were transfected with plasmids encoding pCMV-LacZ; pcDNA3.1(+)SOD1G93A with or without VPS35 short interfering plasmids (Sh56) or compound 2a (10 μM). After 48 hours, 5 μl of supernatants were 100 fold diluted in LDH storage buffer (Tris-HCl 200 mM, 10% Glycerol, 1% BSA, Sigma-Aldrich) and used to determine LDH, according to manufacturer's recommendations. Maximum LDH Release Control was obtained lysing untreated Neuro2a cells with 2 μL of 10% Triton X-100 (Sigma-Aldrich). In each experiment we calculated % Cytotoxicity=(Exp.LDH Release-Medium Background)/(Max LDH Release Control-Medium Background), and we run parallel positive controls treating cells with 200 μM H2O2.

In the case of `N=C(N)NN=Cc1cccc(C=NNC(=N)N)c1` [Compound 2a, 1,3-Bis-amino guanidine phenyl hydrazone], the LDH release (cells transfected with G93A plasmids and Sh56 plasmids) is reported as “high release of LDH was observed” and the LDH release (cells transfected with G93A plasmids, 48 hours) is reported as “significantly reduced LDH release”.
